Measured values: patent publication US20240099214A1, “PLANT DEFENCE GENE EXPRESSION” (UPL Corporation Limited, priority 2021, published 2024)

Legend:
Assay type in all cases: in vivo, Tomato ecotype corbarino
set of defense genes = assay: qRT-PCR gene expression of the set of tested defence genes in tomato leaves (relative to a-tubulin, compared to water treatment); details: for gene expression of the set of defense genes compared to TSWV treatment: 48 hours from the treatment, tomato leaves
Method: (§1) Tomato ecotype “corbarino” reported to be susceptible to TSWV infection was used in the experiment. Plants were grown in pots in a climatic chamber with a photoperiod of 16/8 hour at 25° C.
(§2) The viral strain (TSWV PV PV-0393) was utilized in the experiment. The virus was mechanically inoculated and propagated on tomato “corbarino”. The inoculum was prepared in an ice-cooled mortar grounding 1 gr of infected tomato tissue in 10 ml of Na-phosphate buffer 0.01M. The fresh prepared inoculum was stored in ice before use. Tomato plants at BBCH16 were dusted with Carborundum 600 mesh and selected leaves were rubbed with some droplets of inoculum. After 5 min. plants were sprayed with sterile water to remove the excess of inoculum and preserve the cell turgor.
(§3) Four treatments were compared: i) Mock inoculated; ii) TSWV; iii) 0.25% Laminarin; iv) 0.25% Laminarin+TSWV. In the last treatment the virus was inoculated 24 hrs after the laminarin application.
Total RNA was extracted from systemic infected tomato leaves by using the Quick-RNA Plant Kit (Zymo Research) following the manufacturer instructions. […] The RNA concentration was quantified by measuring the absorbance at 260 nm using a Nanodrop 2000 (Thermofisher). The purity of all of the RNA samples was assessed at an absorbance ratio of OD260/280 and OD260/230, while its structural integrity was checked by agarose gel electrophoresis. […]
qPCR reactions were performed with BioRad (Applied Biosystems, Foster City, CA, USA) using SYBR R Green. […] Reactions were run using the cycling parameter described previously (Reid et al., 2006) and the qPCR data were analyzed by the Ct method (Pfaffl, 2001). In order to analyze the qPCR data, a-tubulin gene was used as housekeeping to determine the relative expression level of the other genes analyzed in this work. […] The corresponding qPCR efficiencies (E) were calculated for every primer pair with the software 7300 System SDS software (Applied Biosystems, Foster City, CA, USA) according to the equation E=(10−1/slope−1)×100 (Rutledge and Stewart, 2008). […]

[1] = test system: AP2-like-ethylene-responsive transcription factor (gene 4, Solyc11g072600.1); assay: qRT-PCR expression of gene 4 in tomato leaves; set-up: key: relative expression normalized to a-tubulin housekeeping gene
Method: as §1, §2, §3
(§4) Total RNA was extracted from systemic infected tomato leaves by using the Quick-RNA Plant Kit (Zymo Research) following the manufacturer instructions. The extractions were carried out using three plants after 12 h, 24 h, 48 h, 72 h, 7 days after inoculation. Leaves were instantly frozen in liquid nitrogen after cutting to avoid any deterioration of the sample as well as any defense reaction. The RNA concentration was quantified by measuring the absorbance at 260 nm using a Nanodrop 2000 (Thermofisher). The purity of all of the RNA samples was assessed at an absorbance ratio of OD260/280 and OD260/230, while its structural integrity was checked by agarose gel electrophoresis. Only high-quality RNA with OD 260/280 and OD 260/230>2 was used for subsequent steps. Single-stranded cDNA was synthesized from 1 μg of total RNA using an iScript™ Select cDNA Synthesis Kit and random hexamers as primers (Bio-Rad, Milan, Italy), according to the manufacturer's instructions. Three biological replicates were created from the 3 leaves collected to test 15 genes. Alpha tubulin was used as reference gene.
(§5) qPCR reactions were performed with BioRad (Applied Biosystems, Foster City, CA, USA) using SYBR R Green. Each reaction was performed in 20 μl containing 10 μl of 2× Power SYBR Green PCR Master Mix (Life Technologies), 0.2-0.3 μM primers and cDNA samples diluted 1:20. Each qPCR reaction was performed in triplicate. Reactions were run using the cycling parameter described previously (Reid et al., 2006) and the qPCR data were analyzed by the Ct method (Pfaffl, 2001). In order to analyze the qPCR data, a-tubulin gene was used as housekeeping to determine the relative expression level of the other genes analyzed in this work. For the determination of qPCR efficiency of each primer pairs, a standard curve was performed using the following cDNA dilutions: 1:4, 1:16, 1:64; 1:256 and 1:1024. Every measurement was made in triplicate. The corresponding qPCR efficiencies (E) were calculated for every primer pair with the software 7300 System SDS software (Applied Biosystems, Foster City, CA, USA) according to the equation E=(10−1/slope−1)×100 (Rutledge and Stewart, 2008).
(§6) The significance of the differences between the gene expressions levels were compared by one-way ANOVA (p=0.01) and the means were separated by Tukey post-hoc test using SPSS ver.26 ([…]).

Pti6 (gene 15, U89257.1) = assay: qRT-PCR expression of gene 15 in tomato leaves; set-up: key: relative expression normalized to a-tubulin housekeeping gene
Method: as §1, §2, §3, §4, §5, §6

[2] = Gene_15, 12 hr, treatment Laminarin
[3] = Gene_15, 12 hr, treatment Laminarin + virus
[4] = Gene_15, 24 hr, treatment Laminarin
[5] = Gene_15, 24 hr, treatment Laminarin + virus
[6] = Gene_15, 48 hr, treatment Laminarin
[7] = Gene_15, 48 hr, treatment Laminarin + virus
[8] = Gene_15, 72 hr, treatment Laminarin
[9] = Gene_15, 72 hr, treatment Laminarin + virus

laminarin
gene expression of the set of defense genes compared to TSWV treatment (set of defense genes; 0.25% laminarin + TSWV inoculated 24 hrs after laminarin application): activates the set of defense genes at higher level compared to TSWV | gene expression of the set of defense genes compared to TSWV treatment (set of defense genes; 0.25% laminarin alone): activates the set of defense genes at higher level compared to TSWV | gene expression of the tested genes, overall (set of defense genes; 72 hr): clear evidence of the laminarin effects | RQ1 ([1]; 12 hr, Laminarin + virus): 12.523 | RQ2 ([1]; 12 hr, Laminarin + virus): 0.9104 | RQ3 ([1]; 12 hr, Laminarin + virus): 10.299 | RQ mean ([1]; 12 hr, Laminarin + virus): 10.642 | RQ1 ([1]; 12 hr, Laminarin alone): 0.9931 | RQ2 ([1]; 12 hr, Laminarin alone): 0.9090 | RQ3 ([1]; 12 hr, Laminarin alone): 0.7654 | RQ mean ([1]; 12 hr, Laminarin alone): 0.8892 | RQ1 ([1]; 24 hr, Laminarin + virus): 1.250 | RQ2 ([1]; 24 hr, Laminarin + virus): 1.754 | RQ3 ([1]; 24 hr, Laminarin + virus): 1.545 | RQ mean ([1]; 24 hr, Laminarin + virus): 1.516 | RQ1 ([1]; 24 hr, Laminarin alone): 1.744 | RQ2 ([1]; 24 hr, Laminarin alone): 1.728 | RQ3 ([1]; 24 hr, Laminarin alone): 1.516 | RQ mean ([1]; 24 hr, Laminarin alone): 1.662 | RQ1 ([1]; 48 hr, Laminarin + virus): 13.802 | RQ2 ([1]; 48 hr, Laminarin + virus): 15.313 | RQ3 ([1]; 48 hr, Laminarin + virus): 21.904 | RQ mean ([1]; 48 hr, Laminarin + virus): 17.006 | RQ1 ([1]; 48 hr, Laminarin alone): 15.231 | RQ2 ([1]; 48 hr, Laminarin alone): 15.784 | RQ3 ([1]; 48 hr, Laminarin alone): 37.709 | RQ mean ([1]; 48 hr, Laminarin alone): 22.908 | RQ1 ([1]; 72 hr, Laminarin + virus): 35.424 | RQ2 ([1]; 72 hr, Laminarin + virus): 26.180 | RQ3 ([1]; 72 hr, Laminarin + virus): 29.297 | RQ mean ([1]; 72 hr, Laminarin + virus): 30.301 | RQ1 ([1]; 72 hr, Laminarin alone): 25.807 | RQ2 ([1]; 72 hr, Laminarin alone): 30.148 | RQ3 ([1]; 72 hr, Laminarin alone): 26.311 | RQ mean ([1]; 72 hr, Laminarin alone): 27.422 | RQ1 (Pti6 (gene 15, U89257.1); [2]): 10.060 | RQ2 (Pti6 (gene 15, U89257.1); [2]): 10.254 | RQ3 (Pti6 (gene 15, U89257.1); [2]): 12.879 | RQ mean (Pti6 (gene 15, U89257.1); [2]): 11.065 | RQ1 (Pti6 (gene 15, U89257.1); [3]): 12.002 | RQ2 (Pti6 (gene 15, U89257.1); [3]): 16.131 | RQ3 (Pti6 (gene 15, U89257.1); [3]): 13.764 | RQ mean (Pti6 (gene 15, U89257.1); [3]): 13.966 | RQ1 (Pti6 (gene 15, U89257.1); [4]): 13.129 | RQ2 (Pti6 (gene 15, U89257.1); [4]): 21.363 | RQ3 (Pti6 (gene 15, U89257.1); [4]): 13.388 | RQ mean (Pti6 (gene 15, U89257.1); [4]): 15.960 | RQ1 (Pti6 (gene 15, U89257.1); [5]): 15.392 | RQ2 (Pti6 (gene 15, U89257.1); [5]): 14.812 | RQ3 (Pti6 (gene 15, U89257.1); [5]): 12.195 | RQ mean (Pti6 (gene 15, U89257.1); [5]): 14.133 | RQ1 (Pti6 (gene 15, U89257.1); [6]): 32.421 | RQ2 (Pti6 (gene 15, U89257.1); [6]): 0.8602 | RQ3 (Pti6 (gene 15, U89257.1); [6]): 19.066 | RQ mean (Pti6 (gene 15, U89257.1); [6]): 20.030 | RQ1 (Pti6 (gene 15, U89257.1); [7]): 16.304 | RQ2 (Pti6 (gene 15, U89257.1); [7]): 17.934 | RQ3 (Pti6 (gene 15, U89257.1); [7]): 18.959 | RQ mean (Pti6 (gene 15, U89257.1); [7]): 17.732 | RQ1 (Pti6 (gene 15, U89257.1); [8]): 49.281 | RQ2 (Pti6 (gene 15, U89257.1); [8]): 36.255 | RQ3 (Pti6 (gene 15, U89257.1); [8]): 43.025 | RQ mean (Pti6 (gene 15, U89257.1); [8]): 42.853 | RQ1 (Pti6 (gene 15, U89257.1); [9]): 22.660 | RQ2 (Pti6 (gene 15, U89257.1); [9]): 30.703 | RQ3 (Pti6 (gene 15, U89257.1); [9]): 44.821 | RQ mean (Pti6 (gene 15, U89257.1); [9]): 32.728
